In assay [1] the test system is PKB Ser473 phosphorylation in Rat1-myr-HA-p110 alpha cells. Kind of assay: Reverse protein array assay, PKB Ser473 phosphorylation in Rat1-myr-p110 alpha cells. The following applies: 0.5 h, pAkt Ser473, 30 minutes compound incubation, read-out: p-PKB IC50. It counts as cell-based. A digest of the protocol:
(§1)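 Rat1 cells expressing myristoylated HA-tagged p110 alpha, beta or delta were plated for at least 20 h, then exposed to 8-step serial compound dilutions (0.2% DMSO final) for 30 min at 37 °C. Lysates were spotted at four dilutions on protein microarrays, and relative fluorescence intensity of phospho-Ser473 PKB was calculated.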

The next assay deals with T1, PI3K beta (Homo sapiens, UniProt P42338).
T1 construct: for the full-length p110-b subunit are generated and fused by overlapping PCR; p85(iSH2) fusion partner (see partner chain) (N); His tag (C); made in house; host or cells: baculovirus; Tn5 (Trichoplusia ni) or TiniPro insect cells
T1 sequence (P42338 with tags, fused parts or gaps limits assumed): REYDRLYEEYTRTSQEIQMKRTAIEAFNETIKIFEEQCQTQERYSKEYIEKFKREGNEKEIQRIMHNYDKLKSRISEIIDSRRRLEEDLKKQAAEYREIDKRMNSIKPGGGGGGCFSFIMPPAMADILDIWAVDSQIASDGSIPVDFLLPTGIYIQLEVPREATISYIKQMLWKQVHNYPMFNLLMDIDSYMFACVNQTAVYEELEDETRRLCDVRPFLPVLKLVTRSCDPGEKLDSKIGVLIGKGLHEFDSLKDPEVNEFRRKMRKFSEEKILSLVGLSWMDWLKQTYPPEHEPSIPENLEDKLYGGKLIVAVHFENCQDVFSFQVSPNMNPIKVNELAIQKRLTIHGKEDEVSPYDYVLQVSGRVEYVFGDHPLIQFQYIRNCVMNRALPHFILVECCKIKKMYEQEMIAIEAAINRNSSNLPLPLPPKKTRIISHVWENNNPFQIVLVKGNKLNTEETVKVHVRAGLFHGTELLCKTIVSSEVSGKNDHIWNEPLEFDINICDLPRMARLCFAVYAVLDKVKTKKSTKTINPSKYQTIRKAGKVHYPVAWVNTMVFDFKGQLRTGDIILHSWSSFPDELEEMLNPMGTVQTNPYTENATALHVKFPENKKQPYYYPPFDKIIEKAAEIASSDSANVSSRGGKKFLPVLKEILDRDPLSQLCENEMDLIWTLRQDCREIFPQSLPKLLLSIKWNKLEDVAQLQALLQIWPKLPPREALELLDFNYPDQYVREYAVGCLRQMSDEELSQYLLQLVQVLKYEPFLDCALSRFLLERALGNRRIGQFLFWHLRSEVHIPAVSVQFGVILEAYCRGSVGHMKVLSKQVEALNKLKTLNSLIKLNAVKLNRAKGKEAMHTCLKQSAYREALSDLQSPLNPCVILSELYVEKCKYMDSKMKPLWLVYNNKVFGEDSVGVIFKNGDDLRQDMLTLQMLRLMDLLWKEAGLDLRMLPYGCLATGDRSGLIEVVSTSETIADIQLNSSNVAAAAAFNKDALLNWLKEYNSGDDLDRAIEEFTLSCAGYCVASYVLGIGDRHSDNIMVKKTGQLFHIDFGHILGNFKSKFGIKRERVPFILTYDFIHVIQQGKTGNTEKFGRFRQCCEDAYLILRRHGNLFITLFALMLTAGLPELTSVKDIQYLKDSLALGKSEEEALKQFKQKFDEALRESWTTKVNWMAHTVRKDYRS
Kind of assay: PI3K beta kinase assay (Kinase-Glo luminescence). Format: biochemical. A digest of the protocol:
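Residual ATP after a 60 min room-temperature reaction is quantified by Kinase-Glo luminescence. Enzyme: 25 nM BV-949 (p85 iSH2–linker–full-length p110β); substrates 1 μM ATP, 10 μg/mL PI; buffer Tris pH 7.5, MgCl2, NaCl, CHAPS, DTT. Eight concentrations per compound, four-parameter logistic IC50.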

Assay [2] has as its system S6 Ribosomal Protein phosphorylation Ser235/236 in TSC1 null mouse embryo fibroblast (MEF) cells. Kind of assay: Reverse protein array assay, S6 Ribosomal Protein phosphorylation Ser235/236 in TSC1 null MEF cells. It counts as cell-based. The following applies: 1 h, pS6 ribosomal protein Ser235/236, 60 minutes incubation, read-out: p-S6 IC50. A digest of the protocol: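 TSC1−/− MEFs, seeded and held ≥20 h at 37 °C/5% CO2, were exposed to 8-step serial compound dilutions (0.02% DMSO final; DMSO vehicle control) for 60 min at 37 °C. Cells were then lysed on ice for 10 min and lysates spotted onto reverse protein array chips.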

Assay [3] has as its system PKB Ser473 phosphorylation in Rat1-myr-HA-p110 delta cells. Put plainly: Reverse protein array assay, PKB Ser473 phosphorylation in Rat1-myr-p110 delta cells. Format: cell-based. The settings on record: read-out: p-PKB IC50. A digest of the protocol:
as §1

A value given as a limit tells only on which side of the number the result lay.

This passage reports IC50 results from patent US20140005163A1 (NOVARTIS AG, priority 2010, published 2014).

One may read the IC50 as the midpoint of a concentration-inhibition curve. Consider `CCOc1cc(-c2ccc3ncc4c(c3c2)n(-c2c(C)nn(CC(=O)N(C)C)c2C)c(=O)n4C)cnc1C` [Example 85.3, 2-{4-[8-(5-Ethoxy-6-methyl-pyridin-3-yl)-3-methyl-2-oxo-2,3-dihydro-imidazo[4,5-c]quinolin-1-yl]-3,5-dimethyl-pyrazol-1-yl}-N,N-dimethyl-acetamide], for which the IC50 came out at 296 nM in assay [1], 477 nM on PI3K beta, 111 nM in assay [2] and 749 nM in assay [3].
On the same counts, the results for `CCNc1cc(-c2ccc3ncc4c(c3c2)n(-c2cn(C)nc2Cl)c(=O)n4C)cnc1C` [Example 87.2, 1-(3-Chloro-1-methyl-1H-pyrazol-4-yl)-8-(5-ethylamino-6-methyl-pyridin-3-yl)-3-methyl-1,3-dihydro-imidazo[4,5-c]quinolin-2-one] are < 5 nM, 22 nM, 1 nM and < 5 nM.
For `CCNc1cc(-c2ccc3ncc4c(c3c2)n(-c2cn(CC)nc2C)c(=O)n4C)cnc1C` [Example 87.3, 8-(5-Ethylamino-6-methyl-pyridin-3-yl)-1-(1-ethyl-3-methyl-1H-pyrazol-4-yl)-3-methyl-1,3-dihydro-imidazo[4,5-c]quinolin-2-one], in that order: < 5 nM, 12 nM, 6 nM and 7 nM.
Take `COc1ncc(-c2ccc3ncc4c(c3c2)n(-c2cn(C)nc2Cl)c(=O)n4C)cc1N` [Example 89, 8-(5-Amino-6-methoxy-pyridin-3-yl)-1-(3-chloro-1-methyl-1H-pyrazol-4-yl)-3-methyl-1,3-dihydro-imidazo[4,5-c]quinolin-2-one]: the IC50 in assay [1] was < 5 nM; at PI3K beta it was 23 nM; in assay [2] it was < 0.5 nM; in assay [3], 7 nM.
For `CCN(C)c1ccc(-c2ccc3ncc4c(c3c2)n(-c2cn(C)nc2C)c(=O)n4C)cn1` [Example 98.1, 1-(1,3-Dimethyl-1H-pyrazol-4-yl)-8-[6-(ethyl-methyl-amino)-pyridin-3-yl]-3-methyl-1,3-dihydro-imidazo[4,5-c]quinolin-2-one], in that order: < 5 nM, 407 nM, 3 nM and 42 nM.
Regarding `COC(=O)c1ccc(-c2ccc3ncc4c(c3c2)n(-c2cn(C)nc2C)c(=O)n4C)cn1` [Example 100, 5-[1-(1,3-Dimethyl-1H-pyrazol-4-yl)-3-methyl-2-oxo-2,3-dihydro-1H-imidazo[4,5-c]quinolin-8-yl]-pyridine-2-carboxylic acid methyl ester], the IC50 was found to be 12 nM in assay [1], 140 nM at PI3K beta, 4 nM in assay [2] and 43 nM in assay [3].
For `COc1ccc(-c2ccc3ncc4[nH]c(=O)n(-c5cn(C)nc5C)c4c3c2)cn1` [Example 109, 1-(1,3-Dimethyl-1H-pyrazol-4-yl)-8-(6-methoxy-pyridin-3-yl)-1,3-dihydro-imidazo[4,5-c]quinolin-2-one], in that order: 55 nM, 38 nM, 11 nM and 120 nM.
On the same counts, the results for `Cc1nn(C)cc1-n1c(=O)n(C)c2cnc3ccc(-c4cnc5c(ccn5C)c4)cc3c21` [Example 116, 1-(1,3-Dimethyl-1H-pyrazol-4-yl)-3-methyl-8-(1-methyl-1H-pyrrolo[2,3-b]pyridin-5-yl)-1,3-dihydro-imidazo[4,5-c]quinolin-2-one] are < 5 nM, 206 nM, 6 nM and 34 nM.
On the same counts, the results for `CNC(=O)c1cc(-c2ccc3ncc4c(c3c2)n(-c2cn(C)nc2C)c(=O)n4C)cnc1OC` [Example 125.1, 5-[1-(1,3-Dimethyl-1H-pyrazol-4-yl)-3-methyl-2-oxo-2,3-dihydro-1H-imidazo[4,5-c]quinolin-8-yl]-2-methoxy-N-methyl-nicotinamide] are 75 nM, 61 nM, 2 nM and 91 nM.
Take `Cc1nn(C)cc1-n1c(=O)n(C)c2cnc3ccc(-c4ccc(N5CCNCC5)nc4)cc3c21` [Example 126, 1-(1,3-Dimethyl-1H-pyrazol-4-yl)-3-methyl-8-(6-piperazin-1-yl-pyridin-3-yl)-1,3-dihydro-imidazo[4,5-c]quinolin-2-one]: the IC50 is 141 nM in assay [1], 802 nM at PI3K beta, 5.33 nM in assay [2] and 266 nM in assay [3].
On the same counts, the results for `COc1ncc(-c2ccc3ncc4c(c3c2)n(-c2cn(C)nc2C)c(=O)n4C)cc1N` [Example 127, 8-(5-Amino-6-methoxy-pyridin-3-yl)-1-(1,3-dimethyl-1H-pyrazol-4-yl)-3-methyl-1,3-dihydro-imidazo[4,5-c]quinolin-2-one] are 5 nM, 44 nM, 3 nM and 18 nM.
For `Cc1nn(C)cc1-n1c(=O)n(C)c2cnc3ccc(-c4cnc5ccn(C)c5c4)cc3c21` [Example 129, 1-(1,3-Dimethyl-1H-pyrazol-4-yl)-3-methyl-8-(1-methyl-1H-pyrrolo[3,2-b]pyridin-6-yl)-1,3-dihydro-imidazo[4,5-c]quinolin-2-one], the IC50 is 21 nM in assay [1], 34 nM on PI3K beta, 1 nM in assay [2] and 46 nM in assay [3].
On to `CNc1ncc(-c2ccc3ncc4c(c3c2)n(-c2cn(C(C)C)nc2C)c(=O)n4C)cc1F` [Example 141.3, 8-(5-Fluoro-6-methylamino-pyridin-3-yl)-1-(1-isopropyl-3-methyl-1H-pyrazol-4-yl)-3-methyl-1,3-dihydro-imidazo[4,5-c]quinolin-2-one], for which the IC50 was 10 nM in assay [1], 407 nM at PI3K beta, 2 nM in assay [2] and 35 nM in assay [3].
As for `Cc1nn(C(C)C)cc1-n1c(=O)n(C)c2cnc3ccc(-c4cnc(N)c(F)c4)cc3c21` [Example 142.3, 8-(6-Amino-5-fluoro-pyridin-3-yl)-1-(1-isopropyl-3-methyl-1H-pyrazol-4-yl)-3-methyl-1,3-dihydro-imidazo[4,5-c]quinolin-2-one], the IC50 in assay [1] is 10 nM; on PI3K beta, 385 nM; in assay [2], 1 nM; in assay [3] it was 23 nM.
In the case of `CNc1ncc(-c2ccc3ncc4c(c3c2)n(-c2c(C)nn(C)c2C)c(=O)n4C)cc1C(F)(F)F` [Example 144.1, 3-Methyl-8-(6-methylamino-5-trifluoromethyl-pyridin-3-yl)-1-(1,3,5-trimethyl-1H-pyrazol-4-yl)-1,3-dihydro-imidazo[4,5-c]quinolin-2-one], the IC50 in assay [1] was found to be 26 nM; at PI3K beta, 80 nM; in assay [2] it was 2 nM; in assay [3], 84 nM.
For `Cc1nn(C)c(C)c1-n1c(=O)n(C)c2cnc3ccc(-c4cnc(N)c(Cl)c4)cc3c21` [Example 148.1, 8-(6-Amino-5-chloro-pyridin-3-yl)-3-methyl-1-(1,3,5-trimethyl-1H-pyrazol-4-yl)-1,3-dihydro-imidazo[4,5-c]quinolin-2-one], in that order: 63 nM, 51 nM, 22 nM and 90 nM.
For `Cc1nn(C)cc1-n1c(=O)n(C)c2cnc3ccc(-c4cnc(N)c(Cl)c4)cc3c21` [Example 148.2, 8-(6-Amino-5-chloro-pyridin-3-yl)-1-(1,3-dimethyl-1H-pyrazol-4-yl)-3-methyl-1,3-dihydro-imidazo[4,5-c]quinolin-2-one], in that order: < 5 nM, 35 nM, 1 nM and 12 nM.
As for `CCNc1cc(-c2ccc3ncc4c(c3c2)n(-c2cn(C)nc2C)c(=O)n4C)cnc1CO` [Example 155.1, 1-(1,3-Dimethyl-1H-pyrazol-4-yl)-8-(5-ethylamino-6-hydroxymethyl-pyridin-3-yl)-3-methyl-1,3-dihydro-imidazo[4,5-c]quinolin-2-one], the IC50 amounted to 13 nM in assay [1], 19 nM at PI3K beta, 2 nM in assay [2] and 19 nM in assay [3].
For `CCNc1cc(-c2ccc3ncc4c(c3c2)n(-c2cn(CC)nc2C)c(=O)n4C)cnc1CO` [Example 155.2, 8-(5-Ethylamino-6-hydroxymethyl-pyridin-3-yl)-1-(1-ethyl-3-methyl-1H-pyrazol-4-yl)-3-methyl-1,3-dihydro-imidazo[4,5-c]quinolin-2-one], the IC50 in assay [1] amounted to 5 nM; at PI3K beta it was 17 nM; in assay [2] it was 1 nM; in assay [3], 13 nM.
